Test systems include SNB-75 CNS; SF-268 CNS; HCT-116 colon; MOLT-4 leukemia; EKVX NSCLC; SF-295 CNS; SW-620 colon; SF-539 CNS; PC-3 prostate; A549 NSCLC.
Holding throughout (experiment): growth of human tumour cells (NCI), 48 h

“And” between values parts separate entries of the source, which are not always exact repeats. Equal entries are not always repeated.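 All cell lines were grown in 96-well plates and treated with compound for 48 hours. Abbreviation: GI50, concentration required for 50% inhibition of growth. TGI: concentration producing complete growth inhibition.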 Where only a bound is given, the exact number is not on record here.

Take `CCCCc1ccc2nc(NC(=O)OC)[nH]c2c1`: the GI50 in the test on SNB-75 CNS is 25.7 nM; in the test on SF-268 CNS it was 61.6 nM; with HCT-116 colon, 48.2 nM; in the test with MOLT-4 leukemia it was 38.2 nM; in the test on EKVX NSCLC, 855 nM; in the test with SF-295 CNS it was 29.9 nM. The GI50 is 32.5 nM in the test on SW-620 colon, 36.6 nM in the test on SF-539 CNS, 41.3 nM in the test on PC-3 prostate and 86.8 nM in the test with A549 NSCLC. Besides, the TGI is 1180 nM in the test on SNB-75 CNS; 16900 nM in the test with SF-268 CNS; 13500 nM in the test with HCT-116 colon; above 100000 nM in the test on MOLT-4 leukemia; above 100000 nM in the test on EKVX NSCLC; 475 nM in the test with SF-295 CNS. Further, the TGI in the test with SW-620 colon was above 60500 nM; in the test with SF-539 CNS it was 294 nM; with PC-3 prostate, above 82700 nM; in the test with A549 NSCLC it was above 100000 nM.

Regarding `O=c1c(Cl)nsnc1Cl`, the TGI in the test on SNB-75 CNS is above 53100 nM; in the test with SF-268 CNS, 71300 nM; in the test on HCT-116 colon it was 20500 nM; in the test on MOLT-4 leukemia it was 4090 nM; in the test on EKVX NSCLC, 58200 nM; with SF-295 CNS it was 40800 nM. The TGI in the test with SW-620 colon was 31500 nM; with SF-539 CNS, 28100 nM; with PC-3 prostate, 39100 nM; in the test with A549 NSCLC, 65400 nM.

Regarding `O=C(Nc1ccc(Cl)c(Cl)c1)Nc1ccc(Cl)c([N+](=O)[O-])c1`, the GI50 was 4740 nM in the test on SNB-75 CNS; 1760 nM with SF-268 CNS; 813 nM in the test on HCT-116 colon; 925 nM in the test with MOLT-4 leukemia; 1040 nM in the test with EKVX NSCLC; 688 nM in the test on SF-295 CNS. In addition, the GI50 in the test with SW-620 colon is 1100 nM; in the test with SF-539 CNS, 2170 nM; in the test on PC-3 prostate, 921 nM; in the test with A549 NSCLC, 1410 nM. Also, the TGI in the test with SNB-75 CNS was 24400 nM; with SF-268 CNS it was 6840 nM; in the test with HCT-116 colon, 3180 nM; in the test with MOLT-4 leukemia, above 25000 nM; in the test on EKVX NSCLC, 7350 nM; with SF-295 CNS, 2540 nM. Moreover, the TGI with SW-620 colon came to 4230 nM; in the test on SF-539 CNS it was 5510 nM; in the test on PC-3 prostate, 3590 nM; in the test on A549 NSCLC it was 8270 nM.

Consider `Cc1cc(O)c2c(c1)C[C@@H](O)C1=C2C(=O)c2c(O)ccc(OC3CC(O)C(OC4CC(OC5CCC(OC6CC(O)C(OC7CC(OC8CCC(O)C(C)O8)C(O)C(C)O7)C(C)O6)C(C)O5)C(O)C(C)O4)C(C)O3)c2C1=O` (some centres not stated), for which the GI50 was 1480 nM and 1990 nM in the test with SNB-75 CNS; 295 nM and 467 nM in the test with SF-268 CNS; 380 nM and 281 nM in the test on HCT-116 colon; 54.1 nM with MOLT-4 leukemia; 1700 nM and 1370 nM in the test on EKVX NSCLC; 1500 nM and 3020 nM in the test with SF-295 CNS. Also, the GI50 is 362 nM and 216 nM with SW-620 colon; 391 nM and 1310 nM in the test on SF-539 CNS; 400 nM and 849 nM in the test with PC-3 prostate; 2380 nM in the test on A549 NSCLC. In addition, the TGI with MOLT-4 leukemia was 216 nM and 343 nM; in the test with PC-3 prostate, 560 nM and 1490 nM and 3500 nM.

With `Cc1cc2c(-c3nc4ccccc4[nH]3)c(O)c(O)cc2c(O)c1-c1c(C)cc2c(-c3nc4ccccc4[nH]3)c(O)c(O)cc2c1O`, the GI50 in the test on SNB-75 CNS was 38.9 nM; with SF-268 CNS, 31.2 nM; with HCT-116 colon, 8.66 nM; in the test with MOLT-4 leukemia it was 19 nM; with EKVX NSCLC, 31.5 nM; in the test with SF-295 CNS, 22.7 nM. Also, the GI50 in the test on SW-620 colon is 20.9 nM; with SF-539 CNS, 34.4 nM; with PC-3 prostate it was 18.7 nM; in the test with A549 NSCLC, 11.7 nM. Further, the TGI with SNB-75 CNS was 2110 nM; in the test with SF-268 CNS, 3720 nM; in the test on HCT-116 colon, 3290 nM; in the test with MOLT-4 leukemia, above 50000 nM; with EKVX NSCLC it was above 28900 nM; in the test on SF-295 CNS it was 1580 nM. Further, the TGI in the test with SW-620 colon was above 22000 nM; with SF-539 CNS it was 494 nM; in the test with PC-3 prostate, above 34400 nM; in the test on A549 NSCLC, 9660 nM.

As for `C1=C[C@@H]2c3ccc4cnccc4c3NC[C@@H]2C1`, the TGI in the test with SNB-75 CNS, in the test on SF-268 CNS, in the test with HCT-116 colon, in the test with MOLT-4 leukemia, in the test with EKVX NSCLC and in the test on SF-295 CNS was above 100000 nM throughout. Moreover, the TGI in the test on SW-620 colon, in the test on SF-539 CNS, in the test with PC-3 prostate and in the test on A549 NSCLC was above 100000 nM each time.

For `O=C1CCC/C=C\C[C@H]2C=C(Cl)C(=O)/C2=C/C[C@H](CCCCC(F)(F)F)OC(=O)CCC/C=C\C[C@H]2C=C(Cl)C(=O)/C2=C/C[C@H](CCCCC(F)(F)F)O1`, the GI50 with SNB-75 CNS is 1230 nM; in the test on SF-268 CNS, 241 nM; in the test with HCT-116 colon, 157 nM; in the test on MOLT-4 leukemia, 240 nM; in the test on EKVX NSCLC, 283 nM; in the test with SF-295 CNS, 292 nM. Moreover, the GI50 was 237 nM with SW-620 colon, 257 nM in the test on SF-539 CNS, 192 nM with PC-3 prostate and 429 nM in the test with A549 NSCLC. For the same compound, the TGI turned out to be 6240 nM in the test with SNB-75 CNS; 1380 nM in the test with SF-268 CNS; 430 nM in the test on HCT-116 colon; 1600 nM with MOLT-4 leukemia; 1180 nM with EKVX NSCLC; 1190 nM in the test with SF-295 CNS. Moreover, the TGI amounted to 659 nM in the test on SW-620 colon, 1520 nM with SF-539 CNS, 574 nM with PC-3 prostate and 2610 nM in the test with A549 NSCLC.

As for `COc1c(O)c2ccccc2c2cc(O)ccc12`, the TGI stood at 22700 nM in the test on SNB-75 CNS; 28800 nM in the test with SF-268 CNS; 13800 nM with HCT-116 colon; 77400 nM with MOLT-4 leukemia; 32900 nM with EKVX NSCLC; 23500 nM with SF-295 CNS. Also, the TGI in the test with SW-620 colon was 6690 nM; with SF-539 CNS it was 9880 nM; in the test on PC-3 prostate it was 60100 nM; in the test on A549 NSCLC it was 23900 nM.
